Laboratory results as given in ChEMBL document CHEMBL4138119, “Anti-diabetic activity of fused PPARγ-SIRT1 ligands with limited body-weight gain by mimicking calorie restriction and decreasing SGK1 expression” (Eur J Med Chem, 2017).
Calls of active or inactive are those of the source. The calls are words filed in the database; no cut-off is given here.

Assays:
Mus musculus [1] = assay: Toxicity in ob/ob mouse assessed as change in body weight at 3 mg/kg administered via oral gavage daily for 4 days measured on day 5 relative to control; type: organism-based; settings: in vivo, 96 h
[2] = Modulation of SGK1 mRNA expression in HCCD cells at 20 uM after 24 hrs by RT-PCR method relative to control; type: functional, Homo sapiens
[3] = target: T1, Peroxisome proliferator-activated receptor alpha (Homo sapiens) (UniProt Q07869); assay: Transactivation of human Gal4-fused PPARalpha LBD expressed in African green monkey COS7 cells after 24 hrs by luciferase reporter gene assay relative to WY14643; type: cell-based
T1 sequence (whole entry): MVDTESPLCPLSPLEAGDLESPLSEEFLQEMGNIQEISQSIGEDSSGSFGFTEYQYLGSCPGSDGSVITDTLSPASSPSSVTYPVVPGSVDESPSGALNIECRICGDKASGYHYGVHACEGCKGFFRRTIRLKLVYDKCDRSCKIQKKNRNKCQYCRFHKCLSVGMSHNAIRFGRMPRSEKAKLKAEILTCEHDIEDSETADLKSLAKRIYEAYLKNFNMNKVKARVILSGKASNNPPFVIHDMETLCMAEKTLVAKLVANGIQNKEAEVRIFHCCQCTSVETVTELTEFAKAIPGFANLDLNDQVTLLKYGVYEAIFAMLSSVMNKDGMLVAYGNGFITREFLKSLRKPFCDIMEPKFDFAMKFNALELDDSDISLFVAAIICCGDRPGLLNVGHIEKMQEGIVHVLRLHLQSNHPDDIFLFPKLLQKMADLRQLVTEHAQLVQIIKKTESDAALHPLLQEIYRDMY

[4] = target: T2, NAD-dependent protein deacetylase sirtuin-1 (Homo sapiens) (UniProt Q96EB6); assay: Activation of recombinant human SIRT1 at 10 uM using C-terminal AMC labeled Arg-His-Lys-Lys (Ac) as substrate after 30 mins by FLUOR DE LYS fluorescent assay relative to control
T2 sequence (whole entry): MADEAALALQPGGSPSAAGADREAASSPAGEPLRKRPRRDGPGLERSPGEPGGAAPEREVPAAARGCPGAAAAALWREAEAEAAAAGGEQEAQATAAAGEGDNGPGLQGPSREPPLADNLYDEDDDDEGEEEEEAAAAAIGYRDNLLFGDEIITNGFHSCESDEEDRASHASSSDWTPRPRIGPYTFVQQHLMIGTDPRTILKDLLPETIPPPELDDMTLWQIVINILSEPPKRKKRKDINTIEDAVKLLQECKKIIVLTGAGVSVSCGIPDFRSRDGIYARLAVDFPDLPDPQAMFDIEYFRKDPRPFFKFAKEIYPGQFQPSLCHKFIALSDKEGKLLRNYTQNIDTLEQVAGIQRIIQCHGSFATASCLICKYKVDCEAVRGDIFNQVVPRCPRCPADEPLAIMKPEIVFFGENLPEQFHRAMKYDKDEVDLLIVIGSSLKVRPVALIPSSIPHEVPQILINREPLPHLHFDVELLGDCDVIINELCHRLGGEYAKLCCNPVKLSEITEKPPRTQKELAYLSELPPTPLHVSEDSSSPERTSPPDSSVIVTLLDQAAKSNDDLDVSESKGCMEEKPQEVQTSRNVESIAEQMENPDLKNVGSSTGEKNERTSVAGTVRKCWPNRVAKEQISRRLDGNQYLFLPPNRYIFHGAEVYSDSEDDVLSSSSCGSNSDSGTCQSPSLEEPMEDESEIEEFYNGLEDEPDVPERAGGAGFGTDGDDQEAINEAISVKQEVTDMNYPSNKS

Mus musculus [5] = assay: Anti-diabetic activity in ob/ob mouse assessed as change in serum triglyceride levels at 8.4 uM/kg administered via oral gavage daily for 4 days measured on day 5 relative to control; type: functional
Mus musculus [6] = assay: Anti-diabetic activity in ob/ob mouse assessed as change in serum insulin levels at 8.4 uM/kg administered via oral gavage daily for 4 days measured on day 5 relative to control; type: functional
[7] = target: T3, Peroxisome proliferator-activated receptor delta (Homo sapiens) (UniProt Q03181); assay: Transactivation of human PPARdelta at 10 uM
T3 sequence (whole entry): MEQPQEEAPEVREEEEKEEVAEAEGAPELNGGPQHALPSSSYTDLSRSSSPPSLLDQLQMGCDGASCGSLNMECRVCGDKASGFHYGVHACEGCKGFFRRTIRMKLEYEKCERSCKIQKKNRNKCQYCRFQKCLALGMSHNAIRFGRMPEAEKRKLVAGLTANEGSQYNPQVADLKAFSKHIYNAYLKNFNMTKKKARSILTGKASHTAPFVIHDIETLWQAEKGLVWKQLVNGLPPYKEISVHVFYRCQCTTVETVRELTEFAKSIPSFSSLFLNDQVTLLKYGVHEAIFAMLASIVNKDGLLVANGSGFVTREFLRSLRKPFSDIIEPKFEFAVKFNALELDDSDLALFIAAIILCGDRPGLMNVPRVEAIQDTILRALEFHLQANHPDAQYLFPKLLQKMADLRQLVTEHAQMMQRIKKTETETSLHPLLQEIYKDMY

[8] = target: T4, Peroxisome proliferator-activated receptor alpha (Homo sapiens, UniProt Q07869); assay: Transactivation of human Gal4-fused PPARalpha LBD expressed in African green monkey COS7 cells after 24 hrs by luciferase reporter gene assay; type: cell-based
T4 sequence (Q07869 whole entry): T1 sequence (whole entry)

Mus musculus [9] = assay: Toxicity in ob/ob mouse assessed as change in body weight at 8.4 uM/kg administered via oral gavage daily for 4 days measured on day 5 relative to control; type: organism-based; settings: in vivo, 96 h, 8.4 µmol/kg
Mus musculus [10] = assay: Anti-diabetic activity in ob/ob mouse assessed as change in serum glucose levels at 8.4 uM/kg administered via oral gavage daily for 4 days measured on day 5 relative to control; type: functional
[11] = target: T5, Peroxisome proliferator-activated receptor gamma (Homo sapiens, UniProt P37231); assay: Transactivation of human Gal4-fused PPARgamma LBD expressed in African green monkey COS7 cells after 24 hrs by luciferase reporter gene assay; type: cell-based; settings: read-out: EC50
T5 sequence (P37231 whole entry): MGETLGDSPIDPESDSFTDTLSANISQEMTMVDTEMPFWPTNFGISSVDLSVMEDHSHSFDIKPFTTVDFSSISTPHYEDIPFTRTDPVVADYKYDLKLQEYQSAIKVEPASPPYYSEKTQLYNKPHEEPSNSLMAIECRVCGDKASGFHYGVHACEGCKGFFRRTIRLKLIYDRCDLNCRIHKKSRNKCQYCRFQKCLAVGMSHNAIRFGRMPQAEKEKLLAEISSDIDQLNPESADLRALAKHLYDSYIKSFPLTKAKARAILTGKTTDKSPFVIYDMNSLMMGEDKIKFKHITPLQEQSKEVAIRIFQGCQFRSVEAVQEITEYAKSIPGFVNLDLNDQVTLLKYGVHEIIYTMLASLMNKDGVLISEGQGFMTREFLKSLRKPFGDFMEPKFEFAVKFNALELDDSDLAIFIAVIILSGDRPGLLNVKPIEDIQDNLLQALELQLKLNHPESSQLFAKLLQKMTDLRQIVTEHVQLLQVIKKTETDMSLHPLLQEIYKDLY

SMILES	Activity (Mus musculus [1]) [%]	Activity [2] [%]	Emax [3] [%]	Activity [4] [%]	Activity (Mus musculus [5]) [%]	Activity (Mus musculus [6]) [%]	Activity [7]	EC50 [8] [nM]	Activity (Mus musculus [9]) [%]	Activity (Mus musculus [10]) [%]	EC50 [11] [nM]
Cc1oc(-c2ccccc2)nc1CCOc1ccc(C[C@H](Nc2ccccc2C(=O)c2ccccc2)C(=O)O)cc1 [FARGLITAZAR]	162	969	231	–	–	–	–	–	–	–	–
COc1ccc(OC(=O)N(CC(=O)O)Cc2ccc(OCCc3nc(-c4ccccc4)oc3C)cc2)cc1 [MURAGLITAZAR]	206	178	84	–	–	–	–	–	–	–	–
CN(CCOc1ccc(CC2SC(=O)NC2=O)cc1)c1ccccn1 (centres undefined) [ROSIGLITAZONE]	100	119	–	5	–	–	–	–	–	–	–
O=C(O)C(Cc1ccc(OCCn2c(=O)sc3cc(/C=C/c4cc(O)cc(O)c4)ccc32)cc1)OCC(F)(F)F (centres undefined)	–	-57	100	128	-39	-43	inactive	10000	32	-40	200
CCOC(Cc1ccc(OCCn2c(=O)sc3cc(/C=C/c4cc(OC)cc(OC)c4)ccc32)cc1)C(N)=O (centres undefined)	–	-43	35	-12	-32	-26	inactive	1000	158	-27	< 10
CCOC(=O)C(Cc1ccc(OCCn2c(=O)sc3cc(/C=C/c4cc(O)cc(O)c4)ccc32)cc1)OCC (centres undefined)	–	134	76	59	-19	-37	inactive	10000	49	-35	10
CCOC(=O)C(Cc1ccc(OCCn2c(=O)sc3cc(C(=O)/C=C/c4cc(OC)cc(OC)c4)ccc32)cc1)OCC (centres undefined)	–	-14	0	2	-34	-7	inactive	10000	112	-25	30
COc1cc(/C=C/c2ccc3c(c2)sc(=O)n3CCOc2ccc(CC(OCC(F)(F)F)C(=O)O)cc2)cc(OC)c1 (centres undefined)	–	89	170	-4	-23	-61	inactive	300	81	-36	20
COc1cc(/C=C/C(=O)c2ccc3c(c2)sc(=O)n3CCOc2ccc(CC(OCC(F)(F)F)C(=O)O)cc2)cc(OC)c1 (centres undefined)	–	820	36	24	-18	28	inactive	10000	142	-14	1000
